How the values were obtained:
Format in all cases: cell-based
human TLR7 = biological target: T1, human TLR7 (Homo sapiens, UniProt Q9NYK1); assay: TLR7 inhibition reporter assay (HEK-Blue SEAP); conditions: HEK-Blue cells overexpressing human TLR7, stimulated with gardiquimod 7.5 μM, 22 hour incubation
T1 construct: host or cells: HEK-Blue cells
T1 sequence (Q9NYK1 27-1049): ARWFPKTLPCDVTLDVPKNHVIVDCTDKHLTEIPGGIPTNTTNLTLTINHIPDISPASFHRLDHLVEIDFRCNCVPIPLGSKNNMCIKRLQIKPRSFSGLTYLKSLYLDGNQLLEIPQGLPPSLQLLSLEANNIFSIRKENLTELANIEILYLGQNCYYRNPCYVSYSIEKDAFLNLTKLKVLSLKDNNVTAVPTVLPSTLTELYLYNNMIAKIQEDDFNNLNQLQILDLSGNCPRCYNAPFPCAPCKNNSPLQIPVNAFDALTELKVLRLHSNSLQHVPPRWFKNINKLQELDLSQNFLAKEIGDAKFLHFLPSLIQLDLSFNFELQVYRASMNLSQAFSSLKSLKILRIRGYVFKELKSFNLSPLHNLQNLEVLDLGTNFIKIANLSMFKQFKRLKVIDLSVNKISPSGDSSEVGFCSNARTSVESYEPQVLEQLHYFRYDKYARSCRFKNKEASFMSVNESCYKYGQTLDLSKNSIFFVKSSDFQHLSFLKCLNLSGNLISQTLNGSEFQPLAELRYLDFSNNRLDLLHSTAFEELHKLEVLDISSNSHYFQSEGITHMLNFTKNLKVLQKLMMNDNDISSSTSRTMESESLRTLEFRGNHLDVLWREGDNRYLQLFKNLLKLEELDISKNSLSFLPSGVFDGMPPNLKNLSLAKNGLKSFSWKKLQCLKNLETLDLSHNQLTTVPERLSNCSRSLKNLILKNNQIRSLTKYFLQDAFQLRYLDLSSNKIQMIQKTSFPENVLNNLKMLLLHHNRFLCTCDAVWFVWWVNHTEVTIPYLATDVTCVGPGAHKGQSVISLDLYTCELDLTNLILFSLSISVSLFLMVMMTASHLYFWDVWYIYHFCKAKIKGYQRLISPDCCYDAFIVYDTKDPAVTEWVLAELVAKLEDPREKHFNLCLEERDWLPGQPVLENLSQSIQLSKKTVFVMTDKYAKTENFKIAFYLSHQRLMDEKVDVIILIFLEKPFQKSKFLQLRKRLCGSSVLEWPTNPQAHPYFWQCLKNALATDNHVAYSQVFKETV
Outline: (§1)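 Test compounds, final 0.05 nM–50 μM, pre-treat HEK-Blue human TLR7, TLR8 or TLR9 reporter cells before agonist addition (TLR8 R848 15.9 μM; TLR7 gardiquimod 7.5 μM; TLR9 ODN2006 5 nM). Incubation runs 22 h, 37 °C. SEAP detection gives percent inhibition against DMSO and reference-inhibitor controls.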

human TLR8 = biological target: T2, human TLR8 (Homo sapiens, UniProt Q9NR97); assay: TLR8 inhibition reporter assay (HEK-Blue SEAP); conditions: HEK-Blue cells overexpressing human TLR8, stimulated with R848 15.9 μM, 22 hour incubation
T2 construct: host or cells: HEK-Blue cells
T2 sequence (Q9NR97 27-1041): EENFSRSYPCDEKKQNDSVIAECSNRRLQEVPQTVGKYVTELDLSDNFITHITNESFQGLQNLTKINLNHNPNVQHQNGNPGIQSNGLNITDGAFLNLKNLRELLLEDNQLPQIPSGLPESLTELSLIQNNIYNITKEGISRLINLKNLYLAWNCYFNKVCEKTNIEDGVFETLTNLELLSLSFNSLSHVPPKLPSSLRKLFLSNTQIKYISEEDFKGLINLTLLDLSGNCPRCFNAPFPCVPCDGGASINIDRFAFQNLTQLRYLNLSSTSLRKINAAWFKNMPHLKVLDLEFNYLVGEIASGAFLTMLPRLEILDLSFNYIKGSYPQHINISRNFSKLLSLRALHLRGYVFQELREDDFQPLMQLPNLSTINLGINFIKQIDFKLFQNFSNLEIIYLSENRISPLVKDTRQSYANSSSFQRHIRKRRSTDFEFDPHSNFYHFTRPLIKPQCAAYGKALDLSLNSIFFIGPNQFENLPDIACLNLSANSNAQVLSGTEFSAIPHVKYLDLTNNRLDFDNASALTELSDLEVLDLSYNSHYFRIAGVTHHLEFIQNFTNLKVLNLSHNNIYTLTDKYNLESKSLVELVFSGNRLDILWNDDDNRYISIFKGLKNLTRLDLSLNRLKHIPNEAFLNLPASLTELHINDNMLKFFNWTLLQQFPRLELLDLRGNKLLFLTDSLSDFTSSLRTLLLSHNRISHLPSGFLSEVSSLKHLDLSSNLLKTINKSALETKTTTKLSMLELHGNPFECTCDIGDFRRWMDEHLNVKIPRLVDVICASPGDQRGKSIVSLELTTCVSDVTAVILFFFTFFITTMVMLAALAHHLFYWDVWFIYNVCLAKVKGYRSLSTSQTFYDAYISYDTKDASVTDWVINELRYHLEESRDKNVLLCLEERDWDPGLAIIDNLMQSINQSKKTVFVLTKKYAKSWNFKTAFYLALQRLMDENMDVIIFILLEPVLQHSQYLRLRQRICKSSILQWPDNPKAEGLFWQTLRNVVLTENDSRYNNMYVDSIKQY
Outline: as §1

human TLR9 = biological target: T3, human TLR9 (Homo sapiens, UniProt Q9NR96); assay: TLR9 inhibition reporter assay (HEK-Blue SEAP); conditions: HEK-Blue cells overexpressing human TLR9, stimulated with ODN2006 5 nM, 22 hour incubation
T3 construct: host or cells: HEK-Blue cells
T3 sequence (Q9NR96 26-1032): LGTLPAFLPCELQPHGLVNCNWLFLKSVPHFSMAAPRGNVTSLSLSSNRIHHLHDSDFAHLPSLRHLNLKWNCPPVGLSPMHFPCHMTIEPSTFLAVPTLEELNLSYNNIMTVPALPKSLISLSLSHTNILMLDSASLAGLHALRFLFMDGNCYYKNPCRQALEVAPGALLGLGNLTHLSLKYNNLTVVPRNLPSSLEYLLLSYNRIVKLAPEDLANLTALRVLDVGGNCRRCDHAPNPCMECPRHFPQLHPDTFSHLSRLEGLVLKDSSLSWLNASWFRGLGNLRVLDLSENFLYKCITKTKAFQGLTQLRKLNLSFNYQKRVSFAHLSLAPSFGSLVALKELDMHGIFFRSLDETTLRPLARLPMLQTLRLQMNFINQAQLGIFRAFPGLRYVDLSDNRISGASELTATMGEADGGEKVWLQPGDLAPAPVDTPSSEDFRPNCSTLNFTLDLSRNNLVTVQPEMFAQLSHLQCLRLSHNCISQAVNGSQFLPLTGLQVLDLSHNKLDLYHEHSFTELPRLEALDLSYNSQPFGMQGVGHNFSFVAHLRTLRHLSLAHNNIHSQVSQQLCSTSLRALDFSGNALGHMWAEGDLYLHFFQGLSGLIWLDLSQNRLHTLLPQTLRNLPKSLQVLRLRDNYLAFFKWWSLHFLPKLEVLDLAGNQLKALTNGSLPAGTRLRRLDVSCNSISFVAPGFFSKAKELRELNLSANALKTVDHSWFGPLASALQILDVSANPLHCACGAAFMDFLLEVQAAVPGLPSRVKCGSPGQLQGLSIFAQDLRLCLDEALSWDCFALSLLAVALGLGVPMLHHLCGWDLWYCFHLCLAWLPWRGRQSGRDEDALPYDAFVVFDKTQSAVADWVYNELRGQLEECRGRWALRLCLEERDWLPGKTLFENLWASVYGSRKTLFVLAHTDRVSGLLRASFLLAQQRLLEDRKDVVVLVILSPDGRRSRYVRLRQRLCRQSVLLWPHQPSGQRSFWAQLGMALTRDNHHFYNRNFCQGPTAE
Outline: as §1

With COc1ccc(-c2[nH]c3ccc(OCC(=O)N4CCC[C@]5(CCCC[C@@H]5N)C4)cc3c2C(C)C)cc1OC [Example 123, 1-((6R,7S)-7-amino-2-azaspiro[5.5]undecan-2-yl)-2-((2-(3,4-dimethoxyphenyl)-3-isopropyl-1H-indol-5-yl)oxy)ethan-1-one] the IC50 (human TLR7) was 164 nM, the IC50 (human TLR8) was 227 nM and the IC50 (human TLR9) was 2310 nM.

COc1ccc(-c2[nH]c3ccc(OCC(=O)NC[C@H]4CCNC4)cc3c2C(C)C)cc1OC [Example 119, (S)-2-((2-(3,4-dimethoxyphenyl)-3-isopropyl-1H-indol-5-yl)oxy)-N-(pyrrolidin-3-ylmethyl)acetamide] gave an IC50 (human TLR7) of 109 nM, an IC50 (human TLR8) of 177 nM and an IC50 (human TLR9) of 2700 nM.

Work on Cc1c(-c2[nH]c3ccc(OCC4CCN(CC(=O)N(C)C)CC4)cc3c2C(C)C)cn(C)c(=O)c1C [Example 88, 2-(4-(((3-isopropyl-2-(1,4,5-trimethyl-6-oxo-1,6-dihydropyridin-3-yl)-1H-indol-5-yl)oxy)methyl)piperidin-1-yl)-N,N-dimethylacetamide] yielded an IC50 (human TLR7) of 50.9 nM, an IC50 (human TLR8) of 22.4 nM and an IC50 (human TLR9) of 15300 nM.

Compound Cc1cc(-c2[nH]c3ccc(OCc4cccnc4)cc3c2C(C)C)ccn1 [Example 169, 3-isopropyl-2-(2-methylpyridin-4-yl)-5-(pyridin-3-ylmethoxy)-1H-indole] has an IC50 (human TLR7) of 200 nM, an IC50 (human TLR8) of 181 nM and an IC50 (human TLR9) of 28400 nM.

In the case of Cc1cc(-c2[nH]c3ccc(OCC4CCN(CC(C)(C)O)CC4)cc3c2C(C)C)cn2ncnc12 [Example 27, 1-(4-(((3-isopropyl-2-(8-methyl-[1,2,4]triazolo[1,5-a]pyridin-6-yl)-1H-indol-5-yl)oxy)methyl)piperidin-1-yl)-2-methylpropan-2-ol], the IC50 (human TLR7) is reported as 0.5 nM, the IC50 (human TLR8) is reported as 1.7 nM and the IC50 (human TLR9) is reported as 1750 nM.

With Cc1c(-c2[nH]c3ccc(OC4CCN(CC(=O)N(C)C)CC4)cc3c2C(C)C)cn2cnnc2c1C [Example 90, 2-(4-((2-(7,8-dimethyl-[1,2,4]triazolo[4,3-a]pyridin-6-yl)-3-isopropyl-1H-indol-5-yl)oxy)piperidin-1-yl)-N,N-dimethylacetamide] the IC50 (human TLR7) was 8.3 nM, the IC50 (human TLR8) was 13.3 nM and the IC50 (human TLR9) was 12900 nM.

Cc1cc(-c2[nH]c3ccc(OCC4CCCN(C)C4)cc3c2C(C)C)ccn1 (stereo not drawn) [Example 181, 3-isopropyl-5-((1-methylpiperidin-3-yl)methoxy)-2-(2-methylpyridin-4-yl)-1H-indole] was tested, and the IC50 (human TLR7) was 24.2 nM, the IC50 (human TLR8) was 5.9 nM and the IC50 (human TLR9) was 915 nM.

For Cc1c(-c2[nH]c3ccc(OCC4CCN(C(C)C)CC4)cc3c2C(C)C)cn(C)c(=O)c1C [Example 49, 5-(3-isopropyl-5-((1-isopropylpiperidin-4-yl)methoxy)-1H-indol-2-yl)-1,3,4-trimethylpyridin-2(1H)-one], the IC50 (human TLR7) was 9.2 nM, the IC50 (human TLR8) was 1.8 nM and the IC50 (human TLR9) was 4120 nM.

In the case of COCCN1CCC(COc2ccc3[nH]c(-c4cc(C)nc(C)c4)c(C(C)C)c3c2)CC1 [Example 73, 2-(2,6-dimethylpyridin-4-yl)-3-isopropyl-5-((1-(2-methoxyethyl)piperidin-4-yl)methoxy)-1H-indole], the IC50 (human TLR7) is reported as 13.4 nM, the IC50 (human TLR8) is reported as 5.2 nM and the IC50 (human TLR9) is reported as 633 nM.

Cc1cc(-c2[nH]c3ccc(OCC4CCN(C5COC5)CC4)cc3c2C(C)C)cn2ncnc12 [Example 43, 6-(3-isopropyl-5-((1-(oxetan-3-yl)piperidin-4-yl)methoxy)-1H-indol-2-yl)-8-methyl-[1,2,4]triazolo[1,5-a]pyridine] showed an IC50 (human TLR7) of 0.6 nM, an IC50 (human TLR8) of 1.1 nM and an IC50 (human TLR9) greater than 50000 nM.

Cc1cc(-c2[nH]c3ccc(OCC4CCCNC4)cc3c2C(C)C)cc(C)n1 (stereo not drawn) [Example 94, 2-(2,6-dimethylpyridin-4-yl)-3-isopropyl-5-(piperidin-3-ylmethoxy)-1H-indole] gave an IC50 (human TLR7) of 3 nM, an IC50 (human TLR8) of 4.7 nM and an IC50 (human TLR9) of 243 nM.

With COc1ccc(-c2[nH]c3ccc(OCC(=O)N(C)C4CCCNC4)cc3c2C(C)C)cc1OC (stereo not drawn) [Example 127, 2-((2-(3,4-dimethoxyphenyl)-3-isopropyl-1H-indol-5-yl)oxy)-N-methyl-N-(piperidin-3-yl)acetamide] the IC50 (human TLR7) was 35.2 nM, the IC50 (human TLR8) was 15.3 nM and the IC50 (human TLR9) was 858 nM.

Cc1c(-c2[nH]c3ccc(OC4CCN(C(=O)CN(C)C)CC4)cc3c2C(C)C)cn2cnnc2c1C [Example 105, 1-(4-((2-(7,8-dimethyl-[1,2,4]triazolo[4,3-a]pyridin-6-yl)-3-isopropyl-1H-indol-5-yl)oxy)piperidin-1-yl)-2-(dimethylamino)ethan-1-one] gave an IC50 (human TLR7) of 2.9 nM, an IC50 (human TLR8) of 50.2 nM and an IC50 (human TLR9) of 1560 nM.

Cc1cc(-c2[nH]c3ccc(OCC4CCN(C)CC4)cc3c2C(C)C)cn2ncnc12 [Example 41, 6-(3-isopropyl-5-((1-methylpiperidin-4-yl)methoxy)-1H-indol-2-yl)-8-methyl-[1,2,4]triazolo[1,5-a]pyridine] showed an IC50 (human TLR7) of 1.2 nM, an IC50 (human TLR8) of 5.7 nM and an IC50 (human TLR9) of 3440 nM.
